Assays:
[1] = tested on: 4-1ST (human stomach cancer); assay: Tumor growth inhibitory effect (4-1ST subcutaneous solid tumor in nude mice); assay type: in vivo, human cells in SPF BALB/c-nu/nu male mice; details: tumor weight at 3 weeks vs non-treated
Method: (§1) Each of 4-1ST (human stomach cancer) and LC-6 (human lung cancer) cell lines grown subcutaneously as solid tumors in mice, were cut into rectangular pieces measuring 2 mm×2 mm×2 mm and were then transplanted subcutaneously into the right backs of SPF BALB/c-nu/nu male mice (7 week old) by use of a needle for transplantation. Using the equation shown below, the estimated volume of tumor was determined. When the estimated volume of tumor became 100-250 mm^3, the mice were allocated. To the grouped mice were administered various doses of Am 555S, 5-fluorouracil (5-FU) and Cisplatin (CDDP). […] More specifically, Am 555S was orally administered for three terms, each term consisting of five consecutive administration days and two non-administration days, 5-FU was administered intravenously through the tail vein for consecutive five days, and CDDP was administered once intravenously through the tail vein. After three weeks from the administration commencement, the mice were killed and the tumor growth inhibition rates were determined from the rate of tumor weights to that of the non-treated group, so as to determine the effect of growth inhibition of the tumor.

[2] = tested on: TMK-1 (human stomach cancer); assay: Experimental liver metastasis (TMK-1 human stomach cancer transplanted into the spleen of nude mice), increased life span; assay type: in vivo, human cells in SPF BALB/c-nu/nu male mice
Method: (§2) The effect of cancer metastasis inhibition was measured using the compounds Re 80, Am 55S and Am 555S.
(§3) KM12L4 (human colon cancer), TMK-1 (human stomach cancer) and A549 (human lung cancer) were each transplanted into the spleen of SPF BALB/c-nu/nu male mice (7 week old) in an amount of 1×10^6 cells/mouse. This test was conducted using experimental liver metastasis models.
(§4) The test procedure followed the modified Morikawa et al method (Cancer Research, 48, 1943-1948, (1988)). That is, the in vitro cultured cells were collected using 0.25% trypsin--0.02% EDTA or 0.02% EDTA and were then washed with physiological phosphate buffer saline. After the number of the cells was counted, the cells were diluted to 10^6 cells/50 μl. Next, each mouse was incised at their left abdomen after being anesthetized with 30 mg/kg of Nembutal and then the spleen was exposed. With a 28 gauge needle attached syringe, 50 μl of the above-prepared suspension containing 1×10^6 cells/50 μl was injected into the spleen. After two minutes, two portions of blood vessels of the spleen were ligated using a Liga clip and the spleen was removed. The incision site was then closed using a kyapher suture. Each of the compounds Re 80, Am 55S and Am 555S, which is an active ingredient of the cancer metastasis inhibitor of the invention, was suspended in 5% ethanol/olive oil or in 0.5% carboxymethyl cellulose/0.5% Tween 80 (Registered Trademark, produced by Nacalai tesque Co.) and was orally administered to each mouse from next day of the transplantation. In each case, the administration was conducted for three terms, each term consisting of five consecutive administration days and two non-administration days. Evaluation was conducted using the increased life span (ILS) in comparison to the control solvent group as an evaluation index. The ILS of all-trans-retinoic acid (ATRA), known to have cancer metastasis inhibiting properties, was also measured with the same test procedure.

[3] = tested on: genes considered to be related to cancer metastasis and infiltration; details: as reported in the background art; concentration dependent manner; cited from earlier work
[4] = tested on: KM12L4 (human colon cancer); assay: Experimental liver metastasis (KM12L4 human colon cancer transplanted into the spleen of nude mice), increased life span; assay type: in vivo, human cells in SPF BALB/c-nu/nu male mice
Method: as §2, §3, §4

A549 (human lung cancer) = assay: Experimental liver metastasis (A549 human lung cancer transplanted into the spleen of nude mice), increased life span; assay type: in vivo, human cells in SPF BALB/c-nu/nu male mice
Method: as §2, §3, §4

[5] = tested on: experimental liver metastasis models (KM12L4, TMK-1, A549); assay: Effect on the experimental liver metastasis, overall (KM12L4, TMK-1 and A549 models); assay type: in vivo, human cells in SPF BALB/c-nu/nu male mice; details: for maximum ILS as compared with all-trans-retinoic acid (ATRA) / advantage over all-trans-retinoic acid (ATRA) in ILS: comparison with ATRA, in words; for inhibition of cancer metastasis: conclusion in words; for survival time of the mouse: conclusion in words from Table 1; for maximum value of the ILS as compared with the control group: maximum over cell lines and doses of Table 1
Method: as §2, §3, §4

[6] = Toxicity test, oral, 3 weeks; assay type: in vivo, SPF ICR male mice; details: consecutive 3 weeks, 6 mice
Method: SPF ICR male mice (5 week old) were used as divided into groups each consisting of 6 mice. To the group to be administered with the compound Re 80, the group to be administered with the compound Am 55S and the group to be administered with the compound Am 555S were orally administered 2 mg/kg of the compound Re 80 per day, 640 mg/kg of the compound Am 55S per day and 16 mg/kg of the compound Am 555S per day for consecutive 3 weeks, respectively.

LC-6 (human lung cancer) = assay: Tumor growth inhibitory effect (LC-6 subcutaneous solid tumor in nude mice); assay type: in vivo, human cells in SPF BALB/c-nu/nu male mice; details: tumor weight at 3 weeks vs non-treated
Method: as §1

[7] = tested on: 4-1ST (human stomach cancer) and LC-6 (human lung cancer); assay: Tumor growth inhibitory effect, overall (4-1ST and LC-6); assay type: in vivo, human cells in SPF BALB/c-nu/nu male mice
Method: as §1

[8] = 2 mg/kg oral, 3 terms of 5 days on/2 off
[9] = 8 mg/kg oral, 3 terms of 5 days on/2 off

## O=c1[nH]cc(F)c(=O)[nH]1 [5-FU, 5-fluorouracil, reference compound]
[1]; 19 mg/kg i.v. (tail vein), consecutive five days
  Tumor Growth Inhibition Rate: 50.9

## CC1=C(/C=C/C(C)=C/C=C/C(C)=C/C(=O)O)C(C)(C)CCC1 [ATRA, all-trans-retinoic acid, reference compound]
[2]; TMK-1, 8 mg/kg, same test procedure, vs control solvent group
  Increased life span (ILS %): 22%
[3]
  expression of genes related to cancer metastasis and infiltration: can prevent the expression of these genes to interdict metastasis and infiltration of cancer cells in concentration dependent manner

## C[Si](C)(C)c1cc(NC(=O)c2ccc(C(=O)O)cc2)cc([Si](C)(C)C)c1 [Am 55S, 4-[3,5-bis(trimethylsilyl)phenylcarbamoyl] benzoic acid]
[4]; po, 100 mg/kg, 120 h
  Increased life span (ILS %): 14%
[4]; po, 300 mg/kg, 120 h
  Increased life span (ILS %): 42%
[2]; po, 100 mg/kg, 120 h
  Increased life span (ILS %): 39%
[2]; po, 300 mg/kg, 120 h
  Increased life span (ILS %): 30%
A549 (human lung cancer); po, 100 mg/kg, 120 h
  Increased life span (ILS %): 37%
A549 (human lung cancer); po, 300 mg/kg, 120 h
  Increased life span (ILS %): 6%
[5]
  maximum ILS as compared with all-trans-retinoic acid (ATRA): higher
  inhibition of cancer metastasis: effective to inhibit cancer metastasis
  survival time of the mouse: remarkably prolonged
  maximum value of the ILS as compared with the control group: 42%
[6]; 640 mg/kg per day oral
  death: No death occurred
  notable side effect: no notable side effect occurred

## C[Si](C)(C)c1cc(C(=O)Nc2ccc(C(=O)O)cc2)cc([Si](C)(C)C)c1 [Am 555S, 4-[3,5-bis(trimethylsilyl)phenylcarboxamide] benzoic acid]
[4]; KM12L4, 4 mg/kg oral, 3 terms of 5 days on/2 off, vs control solvent group
  Increased life span (ILS %): 5%
[4]; KM12L4, 16 mg/kg oral, 3 terms of 5 days on/2 off, vs control solvent group
  Increased life span (ILS %): 22%
[2]; TMK-1, 4 mg/kg oral, 3 terms of 5 days on/2 off, vs control solvent group
  Increased life span (ILS %): 59%
[2]; TMK-1, 16 mg/kg oral, 3 terms of 5 days on/2 off, vs control solvent group
  Increased life span (ILS %): 71%
A549 (human lung cancer); A549, 4 mg/kg oral, 3 terms of 5 days on/2 off, vs control solvent group
  Increased life span (ILS %): 57%
A549 (human lung cancer); A549, 16 mg/kg oral, 3 terms of 5 days on/2 off, vs control solvent group
  Increased life span (ILS %): 30%
[5]
  advantage over all-trans-retinoic acid (ATRA) in ILS: marked advantages
  maximum ILS as compared with all-trans-retinoic acid (ATRA): higher
  inhibition of cancer metastasis: effective to inhibit cancer metastasis
  survival time of the mouse: remarkably prolonged
  maximum value of the ILS as compared with the control group: 71%
[1]; [8]
  Tumor Growth Inhibition Rate: 2.7
[1]; 4 mg/kg oral, 3 terms of 5 days on/2 off
  Tumor Growth Inhibition Rate: -4.9
[1]; [9]
  Tumor Growth Inhibition Rate: 8.7
LC-6 (human lung cancer); [8]
  Tumor Growth Inhibition Rate: 2.7
LC-6 (human lung cancer); [9]
  Tumor Growth Inhibition Rate: 13.7
[7]; comparison in words from Table 2
  tumor growth inhibition rates as compared with 5-FU and CDDP: extremely low tumor growth inhibition rates
[7]; conclusion in words from Table 2
  tumor growth inhibition activity: no tumor growth inhibition activity
[6]; 16 mg/kg per day oral
  death: No death occurred
  notable side effect: no notable side effect occurred

## [NH2][Pt]([NH2])([Cl])[Cl] [CDDP, Cisplatin, reference compound]
LC-6 (human lung cancer); 7 mg/kg i.v. (tail vein), once
  Tumor Growth Inhibition Rate: 52.3

## CC1(C)CCC(C)(C)c2cc(C(=O)C=C(O)c3ccc(C(=O)O)cc3)c(O)cc21 [Re 80, 4-[1-hydroxy-3-oxo-3-(5,6,7,8-tetrahydro-5,5,8,8-tetramethyl-3-hydroxy-2-naphthalenyl)-1-propenyl] benzoic acid]
[4]; po, 0.5 mg/kg, 120 h
  Increased life span (ILS %): 23%
[4]; po, 2 mg/kg, 120 h
  Increased life span (ILS %): 34%
[2]; po, 0.5 mg/kg, 120 h
  Increased life span (ILS %): 36%
[2]; po, 2 mg/kg, 120 h
  Increased life span (ILS %): 50%
A549 (human lung cancer); po, 0.5 mg/kg, 120 h
  Increased life span (ILS %): 19%
A549 (human lung cancer); po, 2 mg/kg, 120 h
  Increased life span (ILS %): 22%
[5]
  advantage over all-trans-retinoic acid (ATRA) in ILS: marked advantages
  maximum ILS as compared with all-trans-retinoic acid (ATRA): higher
  inhibition of cancer metastasis: effective to inhibit cancer metastasis
  survival time of the mouse: remarkably prolonged
  maximum value of the ILS as compared with the control group: 50%
[6]; 2 mg/kg per day oral
  death: No death occurred
  notable side effect: no notable side effect occurred

From patent publication US5750515A, “Cancer metastasis inhibitor” (Taiho Pharmaceutical Co., Ltd., priority 1995, dated 1998)
